Here are results for one compound from patent US5783597A, “2,5-disubstituted thiophenes: inhibitors of 5-lipoxygenase and inducible cyclooxygenase (COX-2) enzymes, composition and use” (Ortho Pharmaceutical Corporation, priority 1997, dated 1998).

The term IC50 denotes the concentration that gives 50% inhibition. As a reminder, the ED50 is the dose that gives a 50% effect, or the effect in half of the subjects.

For assay [1], the target named is T1, Human Prostaglandin H2 Synthase Typ II (Cox-2) (Homo sapiens, UniProt P35354).
T1 construct: endogenous in cells; host or cells: ECV-304 cells treated with PMA and ionomycin for 16 hours
T1 sequence (P35354 18-604): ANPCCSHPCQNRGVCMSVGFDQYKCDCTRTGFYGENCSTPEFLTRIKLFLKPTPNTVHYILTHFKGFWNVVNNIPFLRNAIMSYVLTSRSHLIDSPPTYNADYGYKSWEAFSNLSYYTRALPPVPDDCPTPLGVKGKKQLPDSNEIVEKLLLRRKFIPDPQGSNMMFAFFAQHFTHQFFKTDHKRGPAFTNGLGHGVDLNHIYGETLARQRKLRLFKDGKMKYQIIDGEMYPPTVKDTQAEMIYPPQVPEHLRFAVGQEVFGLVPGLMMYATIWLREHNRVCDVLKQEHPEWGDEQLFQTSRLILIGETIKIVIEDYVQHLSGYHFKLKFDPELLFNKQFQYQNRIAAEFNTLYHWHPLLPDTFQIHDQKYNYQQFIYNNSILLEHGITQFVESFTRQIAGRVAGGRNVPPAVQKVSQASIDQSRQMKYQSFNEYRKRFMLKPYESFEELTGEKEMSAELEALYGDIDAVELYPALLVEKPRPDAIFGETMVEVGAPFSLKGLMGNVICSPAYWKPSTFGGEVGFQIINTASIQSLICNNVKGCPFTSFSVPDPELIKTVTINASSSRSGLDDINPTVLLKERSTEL
Put plainly: Human Prostaglandin H2 Synthase Typ II (Cox-2) Whole Cell Assay, ECV-304 cells (Procedure III). The class given is cell-based. As to conditions: ECV-304 whole cells, PGE2 produced; read-out: Procedure III (COX-2) Wh Cell IC50. As to the method: Human Prostaglandin H2 Synthase Typ II (Cox-2) Whole Cell Assay (Multiple Concentrations)
ECV-304 (human, endothelial, umbilical cord) cells are maintained in culture in a suitable medium, and are trypsinized and plated at a density of 1×10^6 cells per well of a 6 well plate prior to assay. Approximately 28 hours later, 50 μg/ml PMA and […] ionomycin (both final concentrations) are added to each well and incubated for an additional 16 hours. Vehicle or test compounds are incubated with the cells for five minutes prior to initiation of Cox-2 enzyme activity by the addition of 30 μM arachidonic acid. Ten minutes later, an aliquot of the supernatant is withdrawn and the amount of PGE2 present quantitated by radioimmunoassay. Activity, reported as percent inhibition of PGE2 produced, is calculated as follows: […]

Another assay deals with LTB4 levels. Put plainly: Carrageenan-induced inflammation in subcutaneous chambers in beagle dogs: LTB4 levels in fluid exudate (Procedure IV). It counts as in vivo. As to conditions: oral. Here is the method: Carrageenan-Induced Localized Inflammation In Subcutaneous Chambers Implanted In Beagle Dogs
Sterile perforated teflon chambers (wiffle golf balls) were surgically implanted subcutaneously in the dorsal neck fold of beagle dogs (8-13 kg, mixed sex). After a recovery period of 1 month, a 1 ml sample of fluid exudate from each dog was aspirated from within the chamber using a 1 ml syringe and 20 gauge 1 inch needle inserted through one of the perforations in the ball. Immediately after obtaining the sample, 1.5 ml of 0.33% sterile carrageenan lambda (Sigma Chemical Co., St. Louis, Mo.) was injected into the chamber. Dilutions of the baseline samples were made in saline and analyzed for leukocyte count using a Coulter Counter (6.08-50 μm range). The sample was also analyzed for concentrations of PGE2 and LTB4 by adding 200 μl of sample to 1 ml ethanol and centrifuging the precipitate (1,500 X g, 7 min). The supernatant was aspirated and stored at 0° C. until enzyme linked immunosorbant assays (ELISAs) were performed (ELISA Technologies, Lexington, Ky.). […]
Drug effects can be evaluated on several important aspects of inflammation using this in-vivo assay. […] Selectivity of a COX inhibitor can be determined by comparing PGE2 inhibition in peripheral blood (COX-1) to that of the inflammatory fluid exudate in the chamber (COX-2).

Structures are written as SMILES.

For the compound `CS(=O)(=O)Nc1ccc(Oc2ccc(F)cc2)s1` [Example 1], the IC50 in assay [1] was 1810 nM. For the same compound, the ED50 with LTB4 levels (Canis lupus familiaris, inflammatory chamber exudate, read-out: ED50 for inhibition of fluid LTB4 levels) is under 0.01 mg/kg. Further, the “inhibition of LTB4 levels measured in the fluid” value in the assay on LTB4 levels (inflammatory chambers) is recorded as “dose related inhibition”.
